Consider one compound from patent publication US6534523B1, “Hepatitis C inhibitor tri-peptides” (Boehringer Ingelheim (Canada) Ltd., priority 1998, dated 2003).

pIC50: −log10 of the molar value.

For experiment [1], the target named is bovine pancreatic α-chymotrypsin (Bos taurus, UniProt P00766). In words: Specificity assay (Example 40), bovine pancreatic α-chymotrypsin. Conditions: read-out: α-Chym. activity in the specificity assay of Example 40. In kind it is biochemical. As for the experimental part: The specificity of the compounds was determined against a variety of serine proteases: human leukocyte elastase, porcine pancreatic elastase and bovine pancreatic α-chymotrypsin and one cysteine protease: human liver cathepsin B. In all cases a 96-well plate format protocol using a calorimetric p-nitroaniline (pNA) substrate specific for each enzyme was used. Each assay included a 1 h enzyme-inhibitor pre-incubation at 30° C. followed by addition of substrate and hydrolysis to ≈30% conversion as measured on a UV Thermomax® microplate reader. Substrate concentrations were kept as low as possible compared to KM to reduce substrate competition. Compound concentrations varied from 300 to 0.06 μM depending on their potency.
The final conditions for each assay were as follows:
50 mM Tris-HCl pH 8, 0.5 M Na2SO4, 50 mM NaCl, 0.1 mM EDTA, 3% DMSO, 0.01% Tween-20 with;
[100 μM Succ-AAPF-pNA and 250 pM α-chymotrypsin], [133 μM Succ-AAA-pNA and 8 nM porcine elastase], [133 μM Succ-AAV-pNA and 8 nM leukocyte elastase]; or
The sequential 2-fold dilutions of the inhibitor solution were performed on a separate plate by the liquid handler using 50 mM Tris-HCl pH 8, 50 mM NaCl, 0.1 mM EDTA, 0.02% Tween-20, 15% DMSO. All other specificity assays were performed in a similar fashion.
The percentage of inhibition was calculated using the formula:
[1-((UVinh−UVblank)/(UVctl−UVblank))]×100 […]

In the next experiment the target is HCV NS3 protease (UniProt P26663). The experiment is classed as biochemical, HCV genotype 1b. The arrangement: rows headed: IC50 (μM); IC50 (μM). As to conditions: Table 6.
Chain of HCV NS3 protease (P26663 1027-1206, other chains not shown): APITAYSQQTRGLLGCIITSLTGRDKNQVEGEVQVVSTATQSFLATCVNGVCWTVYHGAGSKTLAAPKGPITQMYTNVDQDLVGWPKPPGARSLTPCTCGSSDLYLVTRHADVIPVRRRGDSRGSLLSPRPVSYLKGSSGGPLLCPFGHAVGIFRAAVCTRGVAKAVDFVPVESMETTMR

On to `C=C[C@@H]1C[C@]1(NC(=O)[C@@H]1C[C@@H](Oc2cc(-c3ccccc3)nc3cc(OC)ccc23)CN1C(=O)[C@@H](NC(=O)OC(C)(C)C)C(C)C)C(=O)O` [compound 601], for which the pIC50 in experiment [1] was less than 4.12; against HCV NS3 protease, 7.30.
